From ChEMBL document CHEMBL2073900, “Cellular uptake and efflux of the tea flavonoid (-)epicatechin-3-gallate in the human intestinal cell line Caco-2” (J Pharmacol Exp Ther, 2003)

Biological target: ATP-binding cassette sub-family C member 2 (Homo sapiens, UniProt Q92887)
Test: TP_TRANSPORTER: uptake in membrane vesicle from MRP2-expressing MDCKII cells
Assay type: functional, cell membranes
Conditions: dog, mdck-ii

Chain of ATP-binding cassette sub-family C member 2 (Q92887 whole entry): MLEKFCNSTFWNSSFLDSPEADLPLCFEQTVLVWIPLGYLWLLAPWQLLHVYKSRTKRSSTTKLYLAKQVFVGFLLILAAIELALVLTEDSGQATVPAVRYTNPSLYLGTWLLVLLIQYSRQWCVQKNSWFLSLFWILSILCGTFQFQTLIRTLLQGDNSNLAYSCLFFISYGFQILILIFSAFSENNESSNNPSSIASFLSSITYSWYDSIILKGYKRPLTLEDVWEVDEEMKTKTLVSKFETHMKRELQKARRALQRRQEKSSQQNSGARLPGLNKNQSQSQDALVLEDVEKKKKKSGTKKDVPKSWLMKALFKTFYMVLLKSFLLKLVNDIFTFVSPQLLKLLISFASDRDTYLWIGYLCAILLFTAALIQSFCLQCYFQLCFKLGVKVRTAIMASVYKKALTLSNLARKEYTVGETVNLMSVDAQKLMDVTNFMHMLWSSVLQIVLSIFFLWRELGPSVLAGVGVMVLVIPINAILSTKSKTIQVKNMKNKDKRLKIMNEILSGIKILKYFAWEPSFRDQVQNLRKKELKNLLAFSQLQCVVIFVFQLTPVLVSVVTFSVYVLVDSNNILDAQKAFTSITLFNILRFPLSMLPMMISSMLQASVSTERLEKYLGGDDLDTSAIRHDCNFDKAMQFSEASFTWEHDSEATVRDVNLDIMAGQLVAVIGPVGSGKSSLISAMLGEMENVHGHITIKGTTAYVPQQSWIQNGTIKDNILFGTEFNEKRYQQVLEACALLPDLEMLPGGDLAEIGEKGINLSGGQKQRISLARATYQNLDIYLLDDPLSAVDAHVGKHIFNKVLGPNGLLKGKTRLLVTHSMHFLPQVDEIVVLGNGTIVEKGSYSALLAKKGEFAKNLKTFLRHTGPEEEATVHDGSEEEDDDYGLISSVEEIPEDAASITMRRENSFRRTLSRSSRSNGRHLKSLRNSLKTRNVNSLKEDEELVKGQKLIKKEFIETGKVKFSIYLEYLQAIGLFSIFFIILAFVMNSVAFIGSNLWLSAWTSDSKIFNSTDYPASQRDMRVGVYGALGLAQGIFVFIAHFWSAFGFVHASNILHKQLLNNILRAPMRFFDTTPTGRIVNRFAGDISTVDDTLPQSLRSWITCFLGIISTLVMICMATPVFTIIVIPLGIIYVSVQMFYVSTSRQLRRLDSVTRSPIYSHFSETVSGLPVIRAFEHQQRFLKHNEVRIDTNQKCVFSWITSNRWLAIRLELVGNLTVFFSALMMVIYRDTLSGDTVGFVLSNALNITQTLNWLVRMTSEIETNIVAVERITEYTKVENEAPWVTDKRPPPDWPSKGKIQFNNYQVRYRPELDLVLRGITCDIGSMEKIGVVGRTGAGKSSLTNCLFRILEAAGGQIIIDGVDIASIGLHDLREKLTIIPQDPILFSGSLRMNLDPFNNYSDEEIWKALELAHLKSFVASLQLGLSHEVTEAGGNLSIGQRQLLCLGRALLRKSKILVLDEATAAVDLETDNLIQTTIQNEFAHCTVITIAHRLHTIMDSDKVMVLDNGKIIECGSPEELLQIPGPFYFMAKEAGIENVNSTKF

With O=C(O[C@@H]1Cc2c(O)cc(O)cc2O[C@@H]1c1ccc(O)c(O)c1)c1cc(O)c(O)c(O)c1 [EPICATECHIN GALLATE] the Activity was “substrate []”.
